Each block holds one molecule with its values, some of them ahead of it. The source made the active and inactive calls.
Key:
[1] = biological target: T1, Sentrin-specific protease 8 (Homo sapiens, UniProt Q96LD8); type: functional
T1 sequence (Q96LD8 whole entry): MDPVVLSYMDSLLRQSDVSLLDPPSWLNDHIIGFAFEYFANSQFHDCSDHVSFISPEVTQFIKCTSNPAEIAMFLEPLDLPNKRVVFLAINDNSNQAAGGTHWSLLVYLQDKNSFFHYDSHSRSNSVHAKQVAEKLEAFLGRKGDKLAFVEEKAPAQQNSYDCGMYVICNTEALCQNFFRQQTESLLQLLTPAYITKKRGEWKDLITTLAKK

[2] = biological target: T1, Sentrin-specific protease 8; type: functional; remark: listed apart in the source
[3] = biological target: T2, Apoptotic protease-activating factor 1 (Homo sapiens, UniProt O14727); type: functional
T2 sequence (O14727 whole entry): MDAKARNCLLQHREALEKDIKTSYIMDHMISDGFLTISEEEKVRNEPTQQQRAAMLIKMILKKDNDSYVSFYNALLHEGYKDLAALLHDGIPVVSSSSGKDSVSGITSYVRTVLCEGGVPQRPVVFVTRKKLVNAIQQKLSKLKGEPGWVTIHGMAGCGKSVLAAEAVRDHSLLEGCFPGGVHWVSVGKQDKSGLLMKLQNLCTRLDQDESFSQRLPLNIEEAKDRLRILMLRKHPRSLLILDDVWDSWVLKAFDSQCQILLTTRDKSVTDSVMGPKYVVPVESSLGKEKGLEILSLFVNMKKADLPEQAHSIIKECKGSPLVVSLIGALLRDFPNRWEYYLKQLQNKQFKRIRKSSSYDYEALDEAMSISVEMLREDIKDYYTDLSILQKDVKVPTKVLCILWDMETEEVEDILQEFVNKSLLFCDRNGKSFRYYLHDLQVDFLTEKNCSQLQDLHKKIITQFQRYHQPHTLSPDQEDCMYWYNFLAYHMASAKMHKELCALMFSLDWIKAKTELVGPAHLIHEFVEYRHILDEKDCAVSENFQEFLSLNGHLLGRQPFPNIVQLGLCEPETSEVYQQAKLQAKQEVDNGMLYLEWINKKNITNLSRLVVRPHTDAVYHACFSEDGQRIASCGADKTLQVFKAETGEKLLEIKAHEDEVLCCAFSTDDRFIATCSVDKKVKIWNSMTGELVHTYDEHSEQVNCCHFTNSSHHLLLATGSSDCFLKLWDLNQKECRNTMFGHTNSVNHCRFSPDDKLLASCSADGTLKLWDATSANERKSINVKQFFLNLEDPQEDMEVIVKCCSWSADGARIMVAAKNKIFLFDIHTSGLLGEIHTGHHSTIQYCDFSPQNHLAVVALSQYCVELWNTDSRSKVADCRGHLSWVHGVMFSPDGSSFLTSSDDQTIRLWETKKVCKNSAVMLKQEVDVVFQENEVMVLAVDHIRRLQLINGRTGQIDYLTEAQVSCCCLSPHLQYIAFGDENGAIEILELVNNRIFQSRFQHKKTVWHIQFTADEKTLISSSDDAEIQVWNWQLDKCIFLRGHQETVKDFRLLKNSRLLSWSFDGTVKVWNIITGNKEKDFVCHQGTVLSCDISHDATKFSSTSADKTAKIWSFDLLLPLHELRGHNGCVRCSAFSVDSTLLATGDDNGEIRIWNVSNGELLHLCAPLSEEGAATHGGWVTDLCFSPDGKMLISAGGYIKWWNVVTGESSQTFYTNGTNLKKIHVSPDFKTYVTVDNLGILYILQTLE

[4] = biological target: T1, Sentrin-specific protease 8; assay: inhibition of human SENP8 cleavage activity – biochemical, luminescence, SAR follow-up (AID 504501); type: functional
[5] = biological target: T3, Sentrin-specific protease 6 (Homo sapiens, UniProt Q9GZR1); assay: SAR Analysis of small molecule inhibitors of Sentrin-specific protease 6 (SENP6) using a Luminescent assay. [Related pubchem assays (depositor defined):AID2582, AID2599]; type: functional
T3 sequence (Q9GZR1 whole entry): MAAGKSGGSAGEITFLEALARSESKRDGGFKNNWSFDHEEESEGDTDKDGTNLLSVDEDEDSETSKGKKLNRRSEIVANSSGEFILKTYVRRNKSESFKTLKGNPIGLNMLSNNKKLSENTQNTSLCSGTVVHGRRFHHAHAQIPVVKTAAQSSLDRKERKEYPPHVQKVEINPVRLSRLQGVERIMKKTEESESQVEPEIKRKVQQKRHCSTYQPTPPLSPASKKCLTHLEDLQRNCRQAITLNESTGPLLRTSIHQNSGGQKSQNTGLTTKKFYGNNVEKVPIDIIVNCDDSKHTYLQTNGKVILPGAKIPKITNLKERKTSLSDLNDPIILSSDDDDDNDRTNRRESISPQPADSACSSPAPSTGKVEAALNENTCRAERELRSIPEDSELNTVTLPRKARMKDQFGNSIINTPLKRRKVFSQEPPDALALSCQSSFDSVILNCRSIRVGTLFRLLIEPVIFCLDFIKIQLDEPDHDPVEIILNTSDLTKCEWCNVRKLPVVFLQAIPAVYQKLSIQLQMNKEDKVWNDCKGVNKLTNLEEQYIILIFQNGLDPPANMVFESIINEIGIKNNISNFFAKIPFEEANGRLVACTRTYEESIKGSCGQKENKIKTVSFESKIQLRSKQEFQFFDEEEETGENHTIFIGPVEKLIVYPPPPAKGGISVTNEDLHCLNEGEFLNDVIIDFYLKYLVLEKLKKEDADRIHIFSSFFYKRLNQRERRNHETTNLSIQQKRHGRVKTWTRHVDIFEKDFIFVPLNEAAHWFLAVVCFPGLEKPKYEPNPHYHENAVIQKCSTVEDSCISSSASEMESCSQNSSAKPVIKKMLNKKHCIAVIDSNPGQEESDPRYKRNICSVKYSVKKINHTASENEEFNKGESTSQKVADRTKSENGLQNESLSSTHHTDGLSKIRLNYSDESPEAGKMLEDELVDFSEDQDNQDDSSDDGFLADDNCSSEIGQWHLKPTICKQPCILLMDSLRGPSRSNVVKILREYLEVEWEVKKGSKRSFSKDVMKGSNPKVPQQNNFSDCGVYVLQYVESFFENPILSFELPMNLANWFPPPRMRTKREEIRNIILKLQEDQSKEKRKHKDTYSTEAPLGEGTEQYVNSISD

Caspase-3 = biological target: T4, Caspase-3 (Homo sapiens, UniProt P42574); assay: SAR Analysis of small molecule inhibitors of Sentrin-specific proteases (SENPs) using a Caspase-3 Selectivity assay. [Related pubchem assays (depositor defined):AID2540, AID2599, AID434973, AID489001]; type: functional
T4 sequence (P42574 whole entry): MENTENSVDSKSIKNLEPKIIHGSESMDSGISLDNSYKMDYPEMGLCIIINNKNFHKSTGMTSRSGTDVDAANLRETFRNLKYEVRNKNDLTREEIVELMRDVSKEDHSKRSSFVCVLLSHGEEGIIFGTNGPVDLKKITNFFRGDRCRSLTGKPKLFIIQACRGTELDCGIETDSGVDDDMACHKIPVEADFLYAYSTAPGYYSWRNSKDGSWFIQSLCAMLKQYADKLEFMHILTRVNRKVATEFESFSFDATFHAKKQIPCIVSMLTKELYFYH

[6] = biological target: T5, Sentrin-specific protease 7 (Homo sapiens, UniProt Q9BQF6); assay: inhibition of human SENP7 cleavage activity – biochemical, luminescence, SAR follow-up (AID 504497); type: functional
T5 sequence (Q9BQF6 whole entry): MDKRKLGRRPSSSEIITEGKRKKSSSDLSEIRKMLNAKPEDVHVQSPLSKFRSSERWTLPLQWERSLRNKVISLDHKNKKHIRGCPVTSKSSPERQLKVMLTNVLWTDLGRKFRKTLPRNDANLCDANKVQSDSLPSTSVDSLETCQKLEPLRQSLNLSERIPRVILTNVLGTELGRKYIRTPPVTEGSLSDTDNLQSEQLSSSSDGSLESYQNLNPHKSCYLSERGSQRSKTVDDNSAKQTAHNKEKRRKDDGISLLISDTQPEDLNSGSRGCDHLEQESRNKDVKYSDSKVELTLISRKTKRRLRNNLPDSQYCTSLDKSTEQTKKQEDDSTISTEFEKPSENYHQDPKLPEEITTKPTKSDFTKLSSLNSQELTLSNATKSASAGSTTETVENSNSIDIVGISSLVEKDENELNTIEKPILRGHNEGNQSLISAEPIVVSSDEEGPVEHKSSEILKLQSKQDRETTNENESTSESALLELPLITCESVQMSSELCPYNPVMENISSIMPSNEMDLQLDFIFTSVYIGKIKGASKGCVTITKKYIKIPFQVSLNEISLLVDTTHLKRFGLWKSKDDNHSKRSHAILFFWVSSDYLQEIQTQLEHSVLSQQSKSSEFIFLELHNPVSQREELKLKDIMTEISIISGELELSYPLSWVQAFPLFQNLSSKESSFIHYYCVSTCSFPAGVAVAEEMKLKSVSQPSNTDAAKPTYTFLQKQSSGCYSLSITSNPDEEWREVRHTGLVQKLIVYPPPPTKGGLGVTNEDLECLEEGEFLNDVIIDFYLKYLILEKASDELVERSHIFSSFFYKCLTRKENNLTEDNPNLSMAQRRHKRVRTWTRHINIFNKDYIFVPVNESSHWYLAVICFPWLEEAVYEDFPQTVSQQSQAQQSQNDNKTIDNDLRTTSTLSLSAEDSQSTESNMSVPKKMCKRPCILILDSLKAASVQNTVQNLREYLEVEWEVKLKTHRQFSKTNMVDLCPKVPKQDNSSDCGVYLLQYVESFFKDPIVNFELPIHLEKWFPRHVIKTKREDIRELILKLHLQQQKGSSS

Protein Wnt-3a = Protein Wnt-3a (Mus musculus, UniProt P27467); assay: antagonism of Wnt3a pathway luciferase reporter – Wnt-LIGHT cells, luminescence, selectivity assay for Gli-SUFU antagonist project, dose response (AID 651570); type: functional; conditions: read-out: IC50_Mean;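 further: Wnt-LIGHT reporter cells stimulated with conditioned medium from Wnt3a-producing cells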
Chain of Protein Wnt-3a (P27467 whole entry): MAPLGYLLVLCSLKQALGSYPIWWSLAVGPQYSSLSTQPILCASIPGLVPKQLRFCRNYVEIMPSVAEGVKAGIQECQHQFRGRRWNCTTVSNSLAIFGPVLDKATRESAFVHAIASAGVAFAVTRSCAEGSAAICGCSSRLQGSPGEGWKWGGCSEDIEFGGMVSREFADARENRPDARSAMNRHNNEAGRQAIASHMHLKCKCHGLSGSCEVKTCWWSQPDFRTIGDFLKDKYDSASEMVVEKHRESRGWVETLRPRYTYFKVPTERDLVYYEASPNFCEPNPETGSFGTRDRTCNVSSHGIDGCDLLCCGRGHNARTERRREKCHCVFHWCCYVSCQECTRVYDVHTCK

[7] = test system: Streptococcus sp. 'group A'; assay: Streptococcus pyogenes SK(-)GAS viability under kanamycin – luminescence, BacTiterGlo, confirmation, counter-screen for streptokinase expression inhibitor project, dose response (AID 1900); type: functional, organism-based
Streptococcus = assay: GAS UMAA2166 growth inhibition – luminescence, BacTiterGlo, counter-screen for streptokinase expression inhibitor project, dose response (AID 1915); type: functional, organism-based;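 further: potency for reduction of bacterial viability or growth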
[8] = biological target: DNA (cytosine-5)-methyltransferase 1 (Homo sapiens, UniProt P26358); assay: inhibition of DNA methylation by DNMT1 – biochemical, fluorescent molecular beacon, confirmation (AID 602386); type: functional
Chain of DNA (cytosine-5)-methyltransferase 1 (P26358 whole entry): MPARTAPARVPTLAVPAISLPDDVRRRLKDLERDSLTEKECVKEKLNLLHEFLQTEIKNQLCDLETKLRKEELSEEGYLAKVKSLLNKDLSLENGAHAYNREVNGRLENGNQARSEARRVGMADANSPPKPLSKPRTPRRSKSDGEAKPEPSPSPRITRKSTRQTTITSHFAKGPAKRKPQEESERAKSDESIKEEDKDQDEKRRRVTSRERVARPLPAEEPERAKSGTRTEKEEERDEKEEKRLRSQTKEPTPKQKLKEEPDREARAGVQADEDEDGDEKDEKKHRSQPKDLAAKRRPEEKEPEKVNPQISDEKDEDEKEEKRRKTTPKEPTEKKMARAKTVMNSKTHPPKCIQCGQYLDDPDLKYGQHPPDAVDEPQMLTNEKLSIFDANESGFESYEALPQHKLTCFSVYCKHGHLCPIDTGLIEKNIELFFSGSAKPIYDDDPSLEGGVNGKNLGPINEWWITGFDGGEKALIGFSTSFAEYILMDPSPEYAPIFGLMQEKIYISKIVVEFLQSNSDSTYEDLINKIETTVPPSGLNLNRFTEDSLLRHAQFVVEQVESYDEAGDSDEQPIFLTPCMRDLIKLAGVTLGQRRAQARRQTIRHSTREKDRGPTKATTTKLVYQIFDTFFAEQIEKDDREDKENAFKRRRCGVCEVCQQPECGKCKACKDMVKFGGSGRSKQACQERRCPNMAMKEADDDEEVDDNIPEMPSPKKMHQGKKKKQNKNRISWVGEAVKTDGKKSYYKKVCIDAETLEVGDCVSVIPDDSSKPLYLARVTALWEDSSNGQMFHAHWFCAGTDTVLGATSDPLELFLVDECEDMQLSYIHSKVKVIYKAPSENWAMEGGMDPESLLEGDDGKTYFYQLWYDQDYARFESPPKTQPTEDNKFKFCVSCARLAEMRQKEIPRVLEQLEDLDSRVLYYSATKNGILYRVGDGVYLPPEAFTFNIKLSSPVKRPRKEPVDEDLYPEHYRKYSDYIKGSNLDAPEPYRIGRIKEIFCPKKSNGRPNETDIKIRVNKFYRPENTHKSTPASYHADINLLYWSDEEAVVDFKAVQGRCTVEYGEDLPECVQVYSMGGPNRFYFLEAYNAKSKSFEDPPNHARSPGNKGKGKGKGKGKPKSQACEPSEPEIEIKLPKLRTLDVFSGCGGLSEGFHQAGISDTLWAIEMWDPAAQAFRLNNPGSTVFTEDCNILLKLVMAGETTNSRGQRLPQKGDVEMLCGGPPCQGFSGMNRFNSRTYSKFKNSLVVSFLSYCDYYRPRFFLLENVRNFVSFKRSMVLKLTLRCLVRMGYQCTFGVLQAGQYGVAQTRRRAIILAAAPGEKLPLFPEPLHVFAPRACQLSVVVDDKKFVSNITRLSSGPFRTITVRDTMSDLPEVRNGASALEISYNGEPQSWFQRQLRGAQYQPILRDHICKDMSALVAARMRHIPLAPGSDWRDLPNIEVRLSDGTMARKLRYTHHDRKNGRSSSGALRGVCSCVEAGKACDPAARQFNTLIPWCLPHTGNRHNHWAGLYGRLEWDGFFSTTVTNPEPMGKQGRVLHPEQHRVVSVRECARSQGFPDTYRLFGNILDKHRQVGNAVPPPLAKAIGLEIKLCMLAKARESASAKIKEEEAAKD

[9] = Luminescence Cell-Based Dose Retest to Confirm Inhibitors of Cancer Stem Cells. [Related pubchem assays (depositor defined):AID2717, AID2721]; type: functional; conditions: Homo sapiens
[10] = biological target: Ras and Rab interactor 1/Tyrosine-protein kinase ABL1 (Homo sapiens, UniProt P00519+Q13671); type: functional;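 further: biochemical TR-FRET dose-response test measuring inhibition of binding between Rin1 and Abl proteins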
Chain of Ras and Rab interactor 1/Tyrosine-protein kinase ABL1 (P00519 whole entry): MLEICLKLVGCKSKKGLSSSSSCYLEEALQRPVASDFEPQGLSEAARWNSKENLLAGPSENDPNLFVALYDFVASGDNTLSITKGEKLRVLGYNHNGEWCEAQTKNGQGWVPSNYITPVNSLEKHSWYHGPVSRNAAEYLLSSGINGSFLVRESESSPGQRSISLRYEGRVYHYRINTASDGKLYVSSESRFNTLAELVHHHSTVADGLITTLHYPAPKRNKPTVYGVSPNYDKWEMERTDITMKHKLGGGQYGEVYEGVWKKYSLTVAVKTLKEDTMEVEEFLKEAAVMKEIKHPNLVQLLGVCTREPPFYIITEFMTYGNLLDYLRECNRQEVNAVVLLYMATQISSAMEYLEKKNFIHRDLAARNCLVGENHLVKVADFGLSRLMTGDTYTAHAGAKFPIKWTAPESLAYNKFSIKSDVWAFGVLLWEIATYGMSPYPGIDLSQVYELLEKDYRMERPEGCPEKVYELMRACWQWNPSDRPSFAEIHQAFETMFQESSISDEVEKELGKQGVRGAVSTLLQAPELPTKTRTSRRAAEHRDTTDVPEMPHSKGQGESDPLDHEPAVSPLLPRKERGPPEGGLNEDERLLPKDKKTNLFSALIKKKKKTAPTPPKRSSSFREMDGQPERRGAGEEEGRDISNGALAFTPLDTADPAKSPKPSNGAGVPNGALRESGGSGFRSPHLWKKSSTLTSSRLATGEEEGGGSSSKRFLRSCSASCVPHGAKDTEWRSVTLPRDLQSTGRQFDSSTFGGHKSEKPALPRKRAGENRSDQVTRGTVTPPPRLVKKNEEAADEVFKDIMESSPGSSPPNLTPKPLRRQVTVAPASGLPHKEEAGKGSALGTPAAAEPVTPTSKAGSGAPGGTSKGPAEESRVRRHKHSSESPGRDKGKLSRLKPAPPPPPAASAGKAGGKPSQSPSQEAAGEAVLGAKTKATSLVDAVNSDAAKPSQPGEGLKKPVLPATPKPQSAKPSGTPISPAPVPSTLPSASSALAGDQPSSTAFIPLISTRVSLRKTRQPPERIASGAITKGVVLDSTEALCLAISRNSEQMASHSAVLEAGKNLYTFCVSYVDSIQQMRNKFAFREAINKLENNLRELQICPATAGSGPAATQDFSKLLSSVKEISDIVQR
Chain of Ras and Rab interactor 1/Tyrosine-protein kinase ABL1 (Q13671 whole entry): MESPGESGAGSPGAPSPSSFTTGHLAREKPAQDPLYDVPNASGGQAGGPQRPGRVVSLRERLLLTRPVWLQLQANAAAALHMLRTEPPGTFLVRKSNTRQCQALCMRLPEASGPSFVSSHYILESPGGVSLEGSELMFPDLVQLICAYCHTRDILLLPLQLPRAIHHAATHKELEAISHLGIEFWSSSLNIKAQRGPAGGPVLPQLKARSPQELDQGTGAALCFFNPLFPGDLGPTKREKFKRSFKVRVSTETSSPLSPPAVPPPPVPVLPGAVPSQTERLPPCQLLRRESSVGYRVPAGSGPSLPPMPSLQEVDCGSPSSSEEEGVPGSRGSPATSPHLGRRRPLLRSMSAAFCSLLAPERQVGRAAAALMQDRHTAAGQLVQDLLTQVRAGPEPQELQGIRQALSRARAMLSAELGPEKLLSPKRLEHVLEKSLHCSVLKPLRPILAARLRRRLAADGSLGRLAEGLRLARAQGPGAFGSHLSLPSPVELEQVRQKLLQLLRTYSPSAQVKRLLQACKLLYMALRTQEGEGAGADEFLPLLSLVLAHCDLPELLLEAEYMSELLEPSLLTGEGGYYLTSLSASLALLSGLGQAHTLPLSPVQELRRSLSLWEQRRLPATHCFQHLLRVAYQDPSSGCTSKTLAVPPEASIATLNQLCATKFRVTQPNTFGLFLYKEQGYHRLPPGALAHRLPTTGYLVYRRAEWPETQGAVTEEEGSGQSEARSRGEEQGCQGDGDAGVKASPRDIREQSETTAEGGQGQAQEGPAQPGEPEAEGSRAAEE

[11] = biological target: T6, Low molecular weight phosphotyrosine protein phosphatase (Homo sapiens, UniProt P24666); type: functional; conditions: read-out: IC50_Mean;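 further: Dose-response confirmation assay measuring inhibition of LMPTP enzyme activity by fluorescence intensity read-out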
T6 sequence (P24666 whole entry): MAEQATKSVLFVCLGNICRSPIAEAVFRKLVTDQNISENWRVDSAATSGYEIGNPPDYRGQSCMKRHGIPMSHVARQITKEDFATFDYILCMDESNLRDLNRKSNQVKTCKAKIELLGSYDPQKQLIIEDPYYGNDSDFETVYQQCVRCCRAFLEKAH

[12] = viability loss in HepG2 liver cells – cell-based, ATP luminescence, cherry-pick, set 6, cytotoxicity control, dose response (AID 1053125); type: functional

SMILES: CC1=NN(c2ccc(C(F)(F)F)cn2)C(=O)C1
IC50 [1]: 10.1 µM (active)
IC50 [2]: 15.6 µM (active)
IC50 [3]: 17.7 µM (active)

SMILES: CCn1c(/C=C/Nc2ccccc2)[n+](CC)c2cc(Cl)ccc21
IC50 (Protein Wnt-3a): 26.3 µM (inactive)

SMILES: CC(C)COc1ccc(-c2nn(-c3ccccc3)cc2/C=C2/SC(=S)N(CC(=O)O)C2=O)cc1
EC50 [7]: 2.85 µM (active)
EC50 (Streptococcus): 4.38 µM (active)
IC50 [8]: 5.58 µM (active)
AC50 [9]: 2.87 µM (active)

SMILES: CSCCC(c1nnnn1C1CCCCC1)N1CCC(n2c(O)nc3ccccc32)CC1 (stereo not given)
IC50 [10]: 6.82 µM (active)

SMILES: Cc1ccc2nc3c(cc(C(=O)NCc4ccccc4)c(=N)n3CCCn3ccnc3)c(=O)n2c1
IC50 [11]: 29.8 µM (inactive)
AC50 [12]: 48 µM (active)

Second part, led by results:

IC50 [5]: > 99 µM (inactive)
IC50 (Caspase-3): > 99 µM (inactive)
IC50 [6]: > 99 µM (inactive)
SMILES: COC(=O)c1nn(-c2ccccc2)c2c1C(c1ccc(OC)cc1)(C(F)(F)F)N/C(=N\c1ccc(C)cc1)O2 (stereo not given)
IC50 [4]: > 99 µM (inactive)

IC50 (Protein Wnt-3a): 25.5 µM (inactive)
SMILES: COc1ccc(NC(=S)N2CCC(Cc3ccccc3)CC2)cc1

IC50 [10]: 22.3 µM (inactive)
SMILES: COc1ccccc1CN1C[C@@H]2C[C@@H](c3ccc4nsnc4c3)N3CCC[C@@]23C1=O

IC50 [5]: > 99 µM (inactive)
IC50 (Caspase-3): > 99 µM (inactive)
IC50 [6]: > 99 µM (inactive)
SMILES: COc1cccc2sc(NC(=O)c3ccc(S(=O)(=O)N(C)C4CCCC4)cc3)nc12
IC50 [4]: > 99 µM (inactive)

IC50 [5]: 6.76 µM (active)
IC50 (Caspase-3): 6.02 µM (active)
IC50 [6]: 3.21 µM (active)
SMILES: Cc1ccc(N/N=C/c2c[nH]c3ccccc23)cc1
IC50 [4]: 7.41 µM (active)
